The text below walks through data of patent US6849639B2, “Integrin inhibitors and their methods of use” (Amgen Inc., priority 1999, dated 2005).

As usually defined, the melting point is the temperature of the solid-liquid transition.

SMILES strings stand for the structures. Structures can show the parent of a compound that is named as a salt.

For `CCCCNC(=S)Nc1cccc(N2CC(C(=O)NC(CC(=O)O)c3cccnc3)CC2=O)c1` (centres unmarked) (as salt: sodium) [Example 24, 3-{(1-(3-{((butylamino)thioxomethyl)amino}phenyl)-5-oxopyrrolidin-3-yl)carbonylamino}-3-(3-pyridyl)propanoic acid, sodium salt], the melting point is 235 °C (dec.).

Consider `O=C(O)CC(NC(=O)C1CC(=O)N(c2cccc(NC(=S)NCc3ccco3)c2)C1)c1cccnc1` (centres unmarked) (as salt: sodium) [Example 22, 3-({1-(3-({((2-furylmethyl)amino)thioxomethyl}amino)phenyl)-5-oxopyrrolidin-3-yl}carbonylamino)-3-(3-pyridyl)propanoic acid, sodium salt], for which the melting point is 240 °C (dec.).

Take `CC(C)CCNC(=S)Nc1cccc(N2CC(C(=O)NC(CC(=O)O)c3cccnc3)CC2=O)c1` (centres unmarked) (as salt: sodium) [Example 23, 3-({1-(3-({((3-methylbutyl)amino)thiooxomethyl}amino)phenyl)-5-oxopyrroidin-3-yl}carbonylamino)-3-(3-pyridyl)propanoic acid, sodium salt]: the melting point is 250 °C (dec.).

On to `O=C(O)CC(NC(=O)C1CC(=O)N(c2cccc(NC(=S)NCc3ccccc3)c2)C1)c1cccnc1` (centres unmarked) (as salt: sodium) [Example 20, 3-({5-oxo-1-(3-({(benzylamino)thioxomethyl}amino)phenyl)pyrrolidin-3-yl}carbonylamino)-3-(3-pyridyl)propanoic acid, sodium salt], for which the melting point was 230 °C (dec.).

`O=C(O)CC(NC(=O)C1CC(=O)N(c2cccc(NC(=S)NCc3ccc(F)cc3)c2)C1)c1cccnc1` (centres unmarked) (as salt: sodium) [Example 21, 3-((1-{3-(({((4-fluorophenyl)methyl)amino}thioxomethyl)amino)phenyl}-5-oxopyrrolidin-3-yl)carbonylamino)-3-(3-pyridyl)propanoic acid, sodium salt]: the melting point was 230 °C (dec.).
